Like-named read-outs stand apart in the source and are kept apart here.
How the values were obtained:
sarcosine oxidase [1] = assay: Stirred vessel system, initial gradient of oxygen or hydrogen peroxide signal; assay type: biochemical; settings: for effect of substrate concentration on inhibition of the sarcosine oxidase, FIG. 16: 0.1 g/l sarcosine compared to 1.0 g/l sarcosine
Description: In contrast to the FIA system the stirred vessel system is a discontinuous process. In order to perform a measurement all necessary reaction partners are brought into the reaction chamber of the stirred vessel system and the course of reaction is been monitored by the appropriate detectors during a fixed time period. Afterwards the whole reaction mixture is removed. Then a new measurement can be done.
The reaction mixture of the stirred vessel system in FIG. 11 consists of the sample, substrate, buffer solution and enzyme. Here, the sample and the enzyme are added one after another and the sample itself containing the analyte, acetic acid for instance, in different concentrations. […] The result of the measurement is calculated from the initial gradient of the signal.
During the calibration via the initial gradient samples of different analyte concentration are added and the relating initial inclines are drawn into the chart in dependence of the analyte concentration (see FIGS. 12, 13 and 14). The sample containing the unknown analyte concentration is added to the reaction mixture in the same manner and is determined by using the initial incline which is compared to the calibration curve.

sarcosine oxidase [2] = settings: for inhibition of the sarcosine oxidase activity, FIG. 10: sarcosine oxidase 100 U
Description: In FIA systems an injected volume of the sample is transported to the detector by a continuous moving, not segmented carrier or transport flow via a mixing and reaction line. Meanwhile, the injected sample zone is broadened (dispersion) and reacts with the ingredients of the carrier flow. As a result of the chemical conversion, the changes in concentration of the participating components lead to a change of signal at the detector, which is characteristic for the concentration of the determined substance of the injected sample. In FIG. 1 the analyte (acetic acid) as well as the substrate (sarcosine) are injected as a sample into the carrier flow consisting of the working buffer. The mixing and reacting line contains the immobilized enzyme sarcosine oxidase, which reacts with the analyte and the substrate of the sample. The decrease of oxygen or the production of hydrogene peroxide is measured by means of an oxygen or hydrogene peroxide electrode. A typical measuring signal is reproduced in FIG. 2. The peak high H or surface S is proportional to the concentration of the sample. When calibrating via the peak heights, samples of different analyte concentrations are injected and the resulting peak heights in dependence of their analyte concentrations are drawn into a chart (FIG. 3). The sample of unknown analyte concentration is injected in the same manner and can be determined via the peak height with the help of the calibration curve. In FIG. 4 the substrate is added to the buffer solution and calibration is done by injecting the analyte. Again the analysis of the unknown sample can be be done by using the calibration curve as described in FIG. 5.

effect of substrate concentration on inhibition of the sarcosine oxidase, FIG. 16 (sarcosine oxidase [1]) | inhibition of the sarcosine oxidase activity, FIG. 10 (sarcosine oxidase [2]; 0.25 g/l respectively 0.5 g/l sarcosine) | inhibition of the sarcosine oxidase activity, FIG. 10 (sarcosine oxidase [2]; 1 g/l or 2 g/l sarcosine) | inhibitor strength (inhibition of the measuring system), FIG. 7 (sarcosine oxidase [2]; substances arising in biotechnological media, maximum concentration 0.1 mol/l) | SMILES | amount of inhibition of the sarcosine oxidase (relative initial incline versus analyte concentration), FIG. 15 (sarcosine oxidase [1]; comparison of analytes, acetate and propionate as reference curves)
substantial higher inhibition | a considerable amount of inhibition | only a small amount of inhibition | quite strong | CC(=O)O [acetate] | –
substantial higher inhibition | – | – | – | CCC(=O)O [propionate] | –

SMILES | effect of substrate concentration on inhibition of the sarcosine oxidase, FIG. 16 (sarcosine oxidase [1]) | inhibition of the sarcosine oxidase activity, FIG. 10 (sarcosine oxidase [2]; 0.25 g/l respectively 0.5 g/l sarcosine) | inhibition of the sarcosine oxidase activity, FIG. 10 (sarcosine oxidase [2]; 1 g/l or 2 g/l sarcosine) | inhibitor strength (inhibition of the measuring system), FIG. 7 (sarcosine oxidase [2]; substances arising in biotechnological media, maximum concentration 0.1 mol/l) | amount of inhibition of the sarcosine oxidase (relative initial incline versus analyte concentration), FIG. 15 (sarcosine oxidase [1]; comparison of analytes, acetate and propionate as reference curves)
CC=O [acetaldehyde] | only slightly influenced | – | – | – | lower
